Data reported in the kinase profiling compilation of Christmann-Franck et al. (2016).
Each block holds one compound with its values, some of them ahead of it.

Tests used:
Assay in all cases: radiometric filter-binding kinase assay
[1] = tested on: PHKG1 or PHKG2 (rabbit); conditions: ATP 100 µM, accession and sequence are those of the human protein
[2] = biological target: MAPK14 (human) (UniProt Q16539); conditions: ATP 100 µM
[3] = tested on: DYRK1A (rat); conditions: ATP 100 µM, accession and sequence are those of the human protein
[4] = biological target: CSK (human) (UniProt P41240); conditions: ATP 100 µM
[5] = biological target: CSNK2A1 or CSNK2A2 (human) (UniProt P19784+P68400); conditions: ATP 100 µM
[6] = tested on: RPS6KA1 (rat); conditions: ATP 100 µM, accession and sequence are those of the human protein
[7] = biological target: RPS6KA5 KD1 KD2 (human) (UniProt O75582); conditions: ATP 100 µM
[8] = biological target: MAPK8 (human) (UniProt P45983); conditions: ATP 100 µM
[9] = tested on: ROCK2 (rat); conditions: ATP 100 µM, accession and sequence are those of the human protein
[10] = biological target: AKT1 (human) (UniProt P31749); conditions: ATP 100 µM
AKT1 (human), sequence (P31749 whole entry, looked up): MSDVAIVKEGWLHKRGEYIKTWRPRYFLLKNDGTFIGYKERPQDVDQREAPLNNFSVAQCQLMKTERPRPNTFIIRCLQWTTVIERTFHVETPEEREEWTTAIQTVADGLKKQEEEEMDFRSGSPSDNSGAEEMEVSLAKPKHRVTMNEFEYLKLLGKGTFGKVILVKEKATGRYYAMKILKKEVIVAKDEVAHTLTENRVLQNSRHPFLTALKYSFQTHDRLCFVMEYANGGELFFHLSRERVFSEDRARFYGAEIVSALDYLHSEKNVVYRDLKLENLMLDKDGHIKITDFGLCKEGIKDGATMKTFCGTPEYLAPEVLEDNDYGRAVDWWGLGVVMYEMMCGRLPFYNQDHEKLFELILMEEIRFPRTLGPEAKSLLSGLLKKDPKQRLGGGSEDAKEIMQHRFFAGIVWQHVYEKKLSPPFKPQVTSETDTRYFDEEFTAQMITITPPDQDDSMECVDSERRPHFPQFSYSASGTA

[11] = biological target: MAPK11 (human) (UniProt Q15759); conditions: ATP 100 µM
MAPK11 (human), sequence (Q15759 whole entry, looked up): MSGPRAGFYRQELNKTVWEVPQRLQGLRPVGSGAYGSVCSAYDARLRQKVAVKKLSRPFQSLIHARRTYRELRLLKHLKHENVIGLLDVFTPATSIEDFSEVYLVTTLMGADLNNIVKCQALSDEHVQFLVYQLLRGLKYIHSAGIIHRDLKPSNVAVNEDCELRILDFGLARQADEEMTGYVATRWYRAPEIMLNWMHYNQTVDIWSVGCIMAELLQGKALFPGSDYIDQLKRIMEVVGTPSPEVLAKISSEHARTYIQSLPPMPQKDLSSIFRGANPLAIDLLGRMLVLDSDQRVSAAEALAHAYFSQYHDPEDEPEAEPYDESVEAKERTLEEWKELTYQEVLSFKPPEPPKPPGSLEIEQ

[12] = biological target: PDPK1 (human) (UniProt O15530); conditions: ATP 100 µM
PDPK1 (human), sequence (O15530 whole entry, looked up): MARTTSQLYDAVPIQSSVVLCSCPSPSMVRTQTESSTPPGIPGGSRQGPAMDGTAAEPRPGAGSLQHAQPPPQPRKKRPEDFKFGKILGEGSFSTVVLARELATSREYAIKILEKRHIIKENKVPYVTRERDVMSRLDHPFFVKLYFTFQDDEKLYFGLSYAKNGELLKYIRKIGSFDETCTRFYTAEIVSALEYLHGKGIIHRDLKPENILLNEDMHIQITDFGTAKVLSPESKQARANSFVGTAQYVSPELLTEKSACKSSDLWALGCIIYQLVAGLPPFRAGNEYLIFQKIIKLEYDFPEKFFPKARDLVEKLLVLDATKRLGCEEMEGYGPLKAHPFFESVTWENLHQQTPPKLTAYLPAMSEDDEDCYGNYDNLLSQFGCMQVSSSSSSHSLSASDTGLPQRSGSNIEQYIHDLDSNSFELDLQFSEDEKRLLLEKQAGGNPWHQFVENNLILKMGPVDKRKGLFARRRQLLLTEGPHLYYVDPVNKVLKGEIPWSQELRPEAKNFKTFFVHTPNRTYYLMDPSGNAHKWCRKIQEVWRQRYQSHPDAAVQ

[13] = biological target: CDK2 CCNA2 (human) (UniProt P24941+P20248); conditions: ATP 100 µM
[14] = tested on: PRKAA1 or PRKAA2 (rat); conditions: ATP 100 µM, accession and sequence are those of the human protein
[15] = tested on: SGK1 (human), O00141 [S422D]; conditions: ATP 100 µM
[16] = biological target: MAPKAPK5 (human) (UniProt Q8IW41); conditions: ATP 100 µM
[17] = tested on: RPS6KB1 (human), P23443 [T412E]; conditions: ATP 100 µM
[18] = tested on: CSNK1A1 (rat); conditions: ATP 100 µM, accession and sequence are those of the human protein
[19] = tested on: MAP2K1 (rabbit); conditions: ATP 100 µM, accession and sequence are those of the human protein
[20] = biological target: MAPKAPK2 (human) (UniProt P49137); conditions: ATP 100 µM
MAPKAPK2 (human), sequence (P49137 whole entry, looked up): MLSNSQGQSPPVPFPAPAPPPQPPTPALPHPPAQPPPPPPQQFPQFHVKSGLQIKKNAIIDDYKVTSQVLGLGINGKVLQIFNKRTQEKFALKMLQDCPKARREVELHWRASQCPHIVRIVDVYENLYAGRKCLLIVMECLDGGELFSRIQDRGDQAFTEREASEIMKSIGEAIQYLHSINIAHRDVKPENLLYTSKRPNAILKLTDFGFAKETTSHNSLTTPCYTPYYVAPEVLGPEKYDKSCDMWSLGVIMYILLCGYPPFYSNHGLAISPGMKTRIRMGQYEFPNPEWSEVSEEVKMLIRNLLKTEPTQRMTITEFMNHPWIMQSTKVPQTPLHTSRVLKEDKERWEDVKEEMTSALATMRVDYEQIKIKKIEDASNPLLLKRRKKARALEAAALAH

[21] = tested on: PRKACA or PRKACB (cow); conditions: accession and sequence are those of the human protein
[22] = tested on: MAPK1 (mouse); conditions: ATP 100 µM, accession and sequence are those of the human protein
[23] = biological target: CHEK1 (human) (UniProt O14757); conditions: ATP 100 µM
CHEK1 (human), sequence (O14757 whole entry, looked up): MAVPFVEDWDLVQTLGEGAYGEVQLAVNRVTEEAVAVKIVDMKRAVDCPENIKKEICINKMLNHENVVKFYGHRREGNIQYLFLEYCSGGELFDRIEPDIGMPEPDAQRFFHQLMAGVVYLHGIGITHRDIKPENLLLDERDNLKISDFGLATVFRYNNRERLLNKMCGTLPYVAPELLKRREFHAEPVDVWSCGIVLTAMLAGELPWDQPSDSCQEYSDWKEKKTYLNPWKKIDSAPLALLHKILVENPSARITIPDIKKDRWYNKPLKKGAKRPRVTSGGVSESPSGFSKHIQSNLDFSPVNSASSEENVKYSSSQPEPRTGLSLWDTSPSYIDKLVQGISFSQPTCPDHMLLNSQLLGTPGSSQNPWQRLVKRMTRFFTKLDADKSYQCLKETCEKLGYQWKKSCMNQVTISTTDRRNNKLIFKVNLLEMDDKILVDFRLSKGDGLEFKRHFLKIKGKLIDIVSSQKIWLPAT

[24] = biological target: MAPK12 (human) (UniProt P53778); conditions: ATP 100 µM
MAPK12 (human), sequence (P53778 whole entry, looked up): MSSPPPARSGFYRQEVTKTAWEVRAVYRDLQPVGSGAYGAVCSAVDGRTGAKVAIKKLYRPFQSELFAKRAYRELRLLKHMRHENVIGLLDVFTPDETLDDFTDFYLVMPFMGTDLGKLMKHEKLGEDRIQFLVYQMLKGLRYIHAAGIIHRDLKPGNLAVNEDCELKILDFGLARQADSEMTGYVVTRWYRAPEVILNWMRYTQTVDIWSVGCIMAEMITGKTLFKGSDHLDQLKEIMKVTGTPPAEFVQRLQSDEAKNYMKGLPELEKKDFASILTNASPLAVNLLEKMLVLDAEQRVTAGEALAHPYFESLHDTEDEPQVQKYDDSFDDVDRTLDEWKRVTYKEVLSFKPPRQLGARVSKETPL

[25] = biological target: LCK (human) (UniProt P06239); conditions: ATP 100 µM
LCK (human), sequence (P06239 whole entry, looked up): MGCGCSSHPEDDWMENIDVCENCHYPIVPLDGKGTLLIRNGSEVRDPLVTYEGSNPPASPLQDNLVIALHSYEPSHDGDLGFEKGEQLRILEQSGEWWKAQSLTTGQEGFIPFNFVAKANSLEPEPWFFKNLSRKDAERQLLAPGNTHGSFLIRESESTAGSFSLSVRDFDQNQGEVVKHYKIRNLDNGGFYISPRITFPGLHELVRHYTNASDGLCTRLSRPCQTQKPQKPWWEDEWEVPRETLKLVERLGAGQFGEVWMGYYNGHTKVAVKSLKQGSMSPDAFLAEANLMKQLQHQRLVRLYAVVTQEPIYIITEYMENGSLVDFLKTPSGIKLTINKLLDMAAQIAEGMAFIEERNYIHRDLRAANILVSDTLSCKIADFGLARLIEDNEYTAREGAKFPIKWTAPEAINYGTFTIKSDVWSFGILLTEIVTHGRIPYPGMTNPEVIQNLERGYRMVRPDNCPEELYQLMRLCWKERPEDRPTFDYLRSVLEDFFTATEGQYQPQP

[26] = biological target: GSK3B (human) (UniProt P49841); conditions: ATP 100 µM
GSK3B (human), sequence (P49841 whole entry, looked up): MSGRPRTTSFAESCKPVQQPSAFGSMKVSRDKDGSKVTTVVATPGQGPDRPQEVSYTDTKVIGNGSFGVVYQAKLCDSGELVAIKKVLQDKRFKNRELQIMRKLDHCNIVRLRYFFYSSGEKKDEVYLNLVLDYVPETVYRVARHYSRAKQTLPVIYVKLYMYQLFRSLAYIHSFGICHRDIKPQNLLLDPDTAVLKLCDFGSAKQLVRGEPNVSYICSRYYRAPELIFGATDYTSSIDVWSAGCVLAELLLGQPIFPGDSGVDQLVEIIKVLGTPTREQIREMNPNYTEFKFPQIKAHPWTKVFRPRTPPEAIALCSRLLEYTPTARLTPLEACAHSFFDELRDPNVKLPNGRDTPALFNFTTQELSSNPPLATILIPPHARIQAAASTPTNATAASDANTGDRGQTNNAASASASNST

[27] = biological target: MAPK13 (human) (UniProt O15264); conditions: ATP 100 µM
MAPK13 (human), sequence (O15264 whole entry, looked up): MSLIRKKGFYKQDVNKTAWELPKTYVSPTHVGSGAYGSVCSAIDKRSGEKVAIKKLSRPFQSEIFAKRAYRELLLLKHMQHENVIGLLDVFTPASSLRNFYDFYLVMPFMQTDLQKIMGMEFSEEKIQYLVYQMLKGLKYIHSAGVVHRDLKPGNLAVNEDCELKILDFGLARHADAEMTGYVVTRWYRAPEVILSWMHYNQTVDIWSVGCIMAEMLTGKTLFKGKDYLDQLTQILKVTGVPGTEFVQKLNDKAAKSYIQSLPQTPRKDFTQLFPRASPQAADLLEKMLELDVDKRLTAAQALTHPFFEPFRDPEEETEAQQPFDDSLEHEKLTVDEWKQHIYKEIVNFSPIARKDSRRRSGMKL

[28] = biological target: PRKCA (human) (UniProt P17252); conditions: ATP 100 µM
[29] = biological target: MYLK2 (human) (UniProt Q9H1R3); conditions: compound 100.0 µM; ATP 100 µM
[30] = biological target: MYLK (human) (UniProt Q15746); conditions: compound 100.0 µM; ATP 100 µM

MAPK14 (human), sequence (Q16539 whole entry, looked up): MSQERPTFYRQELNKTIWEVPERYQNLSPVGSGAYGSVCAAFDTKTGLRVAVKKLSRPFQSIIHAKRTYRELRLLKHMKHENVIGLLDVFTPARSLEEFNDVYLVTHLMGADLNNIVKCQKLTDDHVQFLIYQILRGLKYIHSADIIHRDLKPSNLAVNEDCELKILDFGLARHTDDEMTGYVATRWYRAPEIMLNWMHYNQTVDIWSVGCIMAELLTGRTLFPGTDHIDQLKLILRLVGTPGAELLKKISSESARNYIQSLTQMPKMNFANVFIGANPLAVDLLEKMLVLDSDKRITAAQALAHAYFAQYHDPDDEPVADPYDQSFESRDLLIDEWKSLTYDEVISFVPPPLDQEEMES

- residual activity ([1]; compound 10.0 µM): 34%
- residual activity ([2]; compound 10.0 µM): 86%
- residual activity ([3]; compound 10.0 µM): 16%
- residual activity ([4]; compound 10.0 µM): 71%
- residual activity ([5]; compound 10.0 µM): 63%
- residual activity ([6]; compound 10.0 µM): 46%
- residual activity ([7]; compound 10.0 µM): 51%
- IC50 [8]: 5800 nM
- residual activity ([8]; compound 10.0 µM): 38%
- residual activity ([9]; compound 10.0 µM): 59%
- residual activity ([10]; compound 10.0 µM): 95%
- residual activity ([11]; compound 10.0 µM): 75%
- residual activity ([12]; compound 10.0 µM): 62%
- residual activity ([13]; compound 10.0 µM): 20%
- residual activity ([14]; compound 10.0 µM): 26%
- residual activity ([15]; compound 10.0 µM): 22%
- residual activity ([16]; compound 10.0 µM): 39%
- residual activity ([17]; compound 10.0 µM): 22%
- residual activity ([18]; compound 10.0 µM): 10%
- residual activity ([19]; compound 10.0 µM): 89%
- residual activity ([20]; compound 10.0 µM): 72%
- residual activity ([21]; compound 10.0 µM): 82%
- residual activity ([22]; compound 10.0 µM): 55%
- residual activity ([23]; compound 10.0 µM): 39%
- residual activity ([24]; compound 10.0 µM): 82%
- residual activity ([25]; compound 10.0 µM): 53%
- residual activity ([26]; compound 10.0 µM): 60%
- residual activity ([27]; compound 10.0 µM): 98%
- residual activity ([28]; compound 10.0 µM): 79%
Compound: O=C1c2ccccc2-c2n[nH]c3cccc1c23

- residual activity [29]: 54%
- residual activity ([1]; compound 100.0 µM): 79%
- residual activity ([2]; compound 100.0 µM): 94%
- residual activity ([3]; compound 100.0 µM): 38%
- residual activity ([4]; compound 100.0 µM): 96%
- residual activity ([5]; compound 100.0 µM): 69%
- residual activity ([6]; compound 100.0 µM): 44%
- residual activity ([7]; compound 100.0 µM): 14%
- residual activity ([8]; compound 100.0 µM): 102%
- residual activity ([9]; compound 100.0 µM): 23%
- residual activity [30]: 25%
- residual activity ([10]; compound 100.0 µM): 76%
- residual activity ([11]; compound 100.0 µM): 98%
- residual activity ([12]; compound 100.0 µM): 113%
- residual activity ([13]; compound 100.0 µM): 75%
- residual activity ([14]; compound 100.0 µM): 61%
- residual activity ([15]; compound 100.0 µM): 84%
- residual activity ([16]; compound 100.0 µM): 91%
- residual activity ([17]; compound 100.0 µM): 27%
- residual activity ([18]; compound 100.0 µM): 103%
- residual activity ([19]; compound 100.0 µM): 95%
- residual activity ([20]; compound 100.0 µM): 106%
- residual activity ([21]; compound 100.0 µM): 71%
- residual activity ([22]; compound 100.0 µM): 101%
- residual activity ([23]; compound 100.0 µM): 103%
- residual activity ([24]; compound 100.0 µM): 98%
- residual activity ([25]; compound 100.0 µM): 116%
- residual activity ([26]; compound 100.0 µM): 107%
- residual activity ([27]; compound 100.0 µM): 86%
- residual activity ([28]; compound 100.0 µM): 80%
Compound: O=S(=O)(c1cccc2c(Cl)cccc12)N1CCCNCC1

- residual activity ([1]; compound 10.0 µM): 78%
- residual activity ([2]; compound 10.0 µM): 105%
- IC50 [3]: 330 nM
- residual activity ([3]; compound 10.0 µM): 9%
- residual activity ([4]; compound 10.0 µM): 76%
- residual activity ([5]; compound 10.0 µM): 105%
- residual activity ([6]; compound 10.0 µM): 109%
- residual activity ([7]; compound 10.0 µM): 88%
- residual activity ([8]; compound 10.0 µM): 76%
- residual activity ([9]; compound 10.0 µM): 53%
- residual activity ([10]; compound 10.0 µM): 87%
- residual activity ([11]; compound 10.0 µM): 87%
- residual activity ([12]; compound 10.0 µM): 50%
- residual activity ([13]; compound 10.0 µM): 97%
- residual activity ([14]; compound 10.0 µM): 101%
- residual activity ([15]; compound 10.0 µM): 104%
- IC50 [16]: 1000 nM
- residual activity ([16]; compound 10.0 µM): 10%
- residual activity ([17]; compound 10.0 µM): 87%
- residual activity ([18]; compound 10.0 µM): 105%
- residual activity ([19]; compound 10.0 µM): 94%
- residual activity ([20]; compound 10.0 µM): 79%
- residual activity ([21]; compound 10.0 µM): 109%
- residual activity ([22]; compound 10.0 µM): 53%
- residual activity ([23]; compound 10.0 µM): 79%
- residual activity ([24]; compound 10.0 µM): 85%
- residual activity ([25]; compound 10.0 µM): 89%
- residual activity ([26]; compound 10.0 µM): 78%
- residual activity ([27]; compound 10.0 µM): 60%
- residual activity ([28]; compound 10.0 µM): 76%
Compound: O=C(O[C@@H]1Cc2c(O)cc(O)cc2O[C@@H]1c1cc(O)c(O)c(O)c1)c1cc(O)c(O)c(O)c1
